Experimental data published in patent US20240383845A1, “NAPHTHALENEDITHIOL AND DERIVATIVE THEREOF, AND PRODUCTION PROCESS AND USE FOR THE SAME” (SUGAI CHEMICAL INDUSTRY CO., LTD., priority 2021, published 2024).

Experiments:
[1] = Refractive index (abbe refractometer); assay type: physicochemical
Protocol: The refractive index of each sample was measured using an abbe refractometer (“NAR-lT” manufactured by ATAGO CO., LTD.) at a temperature of 25° C. and a wavelength of 589 nm. Depending on the species of each sample, the refractive index was measured as follows.
For the after-mentioned 16NDSH, 15NDSH, 26NDSH and 27NDSH; 15DGNDSH; 15DHENDSH; 16DMNDSH and 15DMNDSH; and 16DCNDSH and 15DCNDSH, a sample was dissolved in 1,3-dimethyl-2-imidazolidinone (DMI) to prepare multiple solutions with different concentrations, and the refractive index of each solution was measured at a temperature of 25° C. and a wavelength of 589 nm. From the results of the refractive index at each concentration, the refractive index value at 100% by mass of the concentration was determined by extrapolation.
For the after-mentioned 16NDSHMA, 15NDSHMA, 26NDSHMA and 27NDSHMA; 16NDSHA and 15NDSHA; 15DANDSH; and 15DVNDSH, polymerization may occur during the mixing, and thus a sample was dissolved in a methoquinone/DMI solution (a solution containing 4000 ppm of methoquinone relative to the mass of DMI) to prepare multiple solutions with different concentrations. The refractive index of each solution was measured at a temperature of 25° C. and a wavelength of 589 nm. From the results of the refractive index at each concentration, the refractive index value at 100% by mass of the concentration was determined by extrapolation.
For the after-mentioned 16DANDSH; 16DVNDSH; 16DGNDSH; and 16DHENDSH, a sample was liquid for a while after preparation, and thus the refractive index was measured in the state of an undiluted solution. Further, thiol-ene-based resins (thiol-ene-based resins obtained from 16NDSH or 15NDSH and divinylbenzene) were measured in the same manner. […]

[2] = Dissolubility or compatibility (maximum dissolved concentration, HPLC); assay type: physicochemical; settings: for Dissolubility, DMF / Dissolubility, Ethyl acetate / Dissolubility, MMA / Dissolubility, PGMEA / Dissolubility, THF / Dissolubility, Methanol / Dissolubility, Toluene / Dissolubility, Styrene: 25° C.; for Dissolubility, DMF: N,N-dimethylformamide; for Dissolubility, MMA: methyl methacrylate; for Dissolubility, PGMEA: propylene glycol monomethyl ether acetate; for Dissolubility, THF: tetrahydrofuran
Protocol: In more detail, the sample was added to a predetermined amount of a solvent or a polymerizable component until the sample was no longer dissolved, and the sample content of the liquid layer (the solvent layer) of the resulting mixture was analyzed using an HPLC (“SPD-20A” manufactured by SHIMADZU CORPORATION), and thus the concentration (the maximum dissolved concentration) of the sample in the liquid layer (the solvent layer) was determined as a solubility.

[3] = stated for the raw material used, method not stated
[4] = 25° C., 589 nm, DMI solutions of different concentrations, value at 100% by mass by extrapolation
[5] = 25° C., 589 nm, measured as undiluted liquid (also thiol-ene-based resins)

Compound | Refractive index [1, 3] | Refractive index [1, 4] | Dissolubility, DMF [2] [% by mass] | Dissolubility, Ethyl acetate [2] | Dissolubility, MMA [2] | Dissolubility, PGMEA [2] | Dissolubility, THF [2] [% by mass] | Dissolubility, Methanol [2] [% by mass] | Dissolubility, Toluene [2] | saturation solubility ([2]; in 55% divinylbenzene (isomer mixture)) | saturation solubility ([2]; in curable composition with bisphenol A-type liquid epoxy resin) | Refractive index ([1]; 25° C., 589 nm, methoquinone/DMI solutions, value at 100% by mass by extrapolation) | Dissolubility, Styrene [2] | saturation solubility ([2]; in styrene (curable resin)) | Refractive index [1, 5]
CCc1nc(C)c[nH]1 [2-ethyl-4-methylimidazole] | 1.499 | – | – | – | – | – | – | – | – | – | – | – | – | – | –
O=C(O)CSc1cccc2c(SCC(=O)O)cccc12 [Example 15DCNDSH, 1,5-bis(carboxymethylthio)naphthalene] | – | 1.657 | 10.1 | 0.03 % by mass | < 0.01 % by mass | 0.02 % by mass | 0.67 | – | – | – | – | – | – | – | –
Sc1cccc2c(S)cccc12 [Example 15NDSH, 1,5-naphthalenedithiol] | – | 1.711 | 34.4 | 7.05 % by mass | – | 7.44 % by mass | 29.0 | 1.08 | 7.26 % by mass | about 5 % by mass | about 0.1 % by mass | – | – | – | –
C=C(C)C(=O)Sc1cccc2c(SC(=O)C(=C)C)cccc12 [Example 15NDSHMA, 1,5-bis(methacryloylthio)naphthalene] | – | – | 13.2 | 4.36 % by mass | 5.22 % by mass | 3.34 % by mass | 18.7 | 0.36 | 6.73 % by mass | – | – | 1.638 | 10.4 % by mass | about 10 % by mass | –
C=CCSc1ccc2c(SCC=C)cccc2c1 [Example 16DANDSH, 1,6-bis(allylthio)naphthalene] | – | – | – | Freely blended (>90) % by mass | Freely blended (>90) % by mass | Freely blended (>90) % by mass | – | – | Freely blended (>90) % by mass | – | – | – | Freely blended (>90) % by mass | – | 1.667
c1cc(SCC2CO2)c2ccc(SCC3CO3)cc2c1 (stereo not drawn) [Example 16DGNDSH, 1,6-bis(glycidylthio)naphthalene] | – | – | – | Freely blended (>90) % by mass | Freely blended (>90) % by mass | Freely blended (>90) % by mass | – | – | Freely blended (>90) % by mass | – | – | – | Freely blended (>90) % by mass | – | 1.665
OCCSc1ccc2c(SCCO)cccc2c1 [Example 16DHENDSH, 1,6-bis(2-hydroxyethylthio)naphthalene] | – | – | – | Freely blended (>90) % by mass | Freely blended (>90) % by mass | Freely blended (>90) % by mass | – | – | 1.69 % by mass | – | – | – | 2.87 % by mass | – | 1.672
C=CSc1ccc2c(SC=C)cccc2c1 [Example 16DVNDSH, 1,6-bis(vinylthio)naphthalene] | – | – | – | Freely blended (>90) % by mass | Freely blended (>90) % by mass | Freely blended (>90) % by mass | – | – | Freely blended (>90) % by mass | – | – | – | Freely blended (>90) % by mass | – | 1.699
C=Cc1ccccc1 [styrene] | 1.544 | – | – | – | – | – | – | – | – | – | – | – | – | – | –
